From ChEMBL document CHEMBL1155011, “Structure-activity relationships of the cycloalkanol ethylamine scaffold: discovery of selective norepinephrine reuptake inhibitors” (J Med Chem, 2008)

How the values were obtained:
Transporter = Transporter (Rattus norvegicus, UniProt Q63380)
Description: Inhibition of norepinephrine uptake at rat brain norepinephrine transporter

[1] = target: Sodium-dependent dopamine transporter (Homo sapiens, UniProt Q01959); experiment: Displacement of [3H]WIN-35428 from human recombinant dopamine transporter expressed in CHO cells at 1000 nM; assay type: cell-based
[2] = Plasma concentration in Sprague-Dawley rat at 30 mg/kg, ip after 6 hrs; assay type: ADME, organism-based; design: dose 30 mg/kg, route intraperitoneal
[3] = Plasma concentration in Sprague-Dawley rat at 30 mg/kg, ip after 4 hrs; assay type: ADME, organism-based; design: dose 30 mg/kg, route intraperitoneal
Mus musculus [4] = experiment: Antidepressant activity in Swiss Webster mouse assessed as decrease in immobility time at 17 mg/kg, ip after 30 mins by tail suspension test; assay type: functional; design: scale not given: the % may be the effect or the level left; conditions: route intraperitoneal
[5] = Plasma concentration in Sprague-Dawley rat at 1 mg/kg, iv after […]; assay type: ADME, organism-based; design: dose 1 mg/kg, route intravenous
Rattus norvegicus [6] = experiment: Effect on ovariectomy-induced thermoregulatory dysfunction in telemetry Sprague-Dawley rat model assessed as mean reduction in tail skin temperature at 30 mg/kg, po after 3 hrs relative to control; assay type: functional
[7] = Plasma concentration in Sprague-Dawley rat at 30 mg/kg, ip after 1 hr; assay type: ADME, organism-based; design: dose 30 mg/kg, route intraperitoneal
[8] = Half life in Sprague-Dawley rat at 30 mg/kg, po; assay type: ADME, organism-based; design: dose 30 mg/kg, route oral; conditions: in vivo
[9] = target: T1, 5-hydroxytryptamine receptor 7 (Homo sapiens, UniProt P34969); experiment: Activity at 5HT7 receptor assessed as calcium mobilization by FLIPR; assay type: functional
[10] = target: T2, 5-hydroxytryptamine receptor 2B (Homo sapiens, UniProt P41595); experiment: Activity at 5HT2B receptor assessed as calcium mobilization by FLIPR; assay type: functional
[11] = Plasma concentration in Sprague-Dawley rat at 30 mg/kg, ip after 0.033 hrs; assay type: ADME, organism-based; design: dose 30 mg/kg, route intraperitoneal
[12] = AUC (0 to infinity) in Sprague-Dawley rat at 30 mg/kg, po; assay type: ADME, organism-based; design: time infinity, dose 30 mg/kg, route oral; conditions: plasma
[13] = target: T3, 5-hydroxytryptamine receptor 6 (Homo sapiens, UniProt P50406); experiment: Inhibition of 5HT6 receptor by competition radioligand binding assay
[14] = target: T2, 5-hydroxytryptamine receptor 2B; experiment: Inhibition of 5HT2B receptor by competition radioligand binding assay
[15] = Plasma concentration in Sprague-Dawley rat at 30 mg/kg, ip after […]; assay type: ADME, organism-based; design: dose 30 mg/kg, route intraperitoneal
[16] = Cmax in Sprague-Dawley rat at 30 mg/kg, ip; assay type: ADME, organism-based; design: dose 30 mg/kg, route intraperitoneal; conditions: in vivo
[17] = AUC (0 to infinity) in Sprague-Dawley rat at 30 mg/kg, ip; assay type: ADME, organism-based; design: time infinity, dose 30 mg/kg, route intraperitoneal; conditions: plasma
[18] = Half life in Sprague-Dawley rat at 30 mg/kg, ip; assay type: ADME, organism-based; design: dose 30 mg/kg, route intraperitoneal; conditions: in vivo
[19] = Plasma concentration in Sprague-Dawley rat at 30 mg/kg, ip after 2 hrs; assay type: ADME, organism-based; design: dose 30 mg/kg, route intraperitoneal
[20] = target: T4, Sodium-dependent serotonin transporter (Homo sapiens, UniProt P31645); experiment: Inhibition of 5HT uptake at human SERT expressed in human JAR cells at 1000 nM; assay type: cell-based
Target sequence in this assay (P31645 whole entry, looked up): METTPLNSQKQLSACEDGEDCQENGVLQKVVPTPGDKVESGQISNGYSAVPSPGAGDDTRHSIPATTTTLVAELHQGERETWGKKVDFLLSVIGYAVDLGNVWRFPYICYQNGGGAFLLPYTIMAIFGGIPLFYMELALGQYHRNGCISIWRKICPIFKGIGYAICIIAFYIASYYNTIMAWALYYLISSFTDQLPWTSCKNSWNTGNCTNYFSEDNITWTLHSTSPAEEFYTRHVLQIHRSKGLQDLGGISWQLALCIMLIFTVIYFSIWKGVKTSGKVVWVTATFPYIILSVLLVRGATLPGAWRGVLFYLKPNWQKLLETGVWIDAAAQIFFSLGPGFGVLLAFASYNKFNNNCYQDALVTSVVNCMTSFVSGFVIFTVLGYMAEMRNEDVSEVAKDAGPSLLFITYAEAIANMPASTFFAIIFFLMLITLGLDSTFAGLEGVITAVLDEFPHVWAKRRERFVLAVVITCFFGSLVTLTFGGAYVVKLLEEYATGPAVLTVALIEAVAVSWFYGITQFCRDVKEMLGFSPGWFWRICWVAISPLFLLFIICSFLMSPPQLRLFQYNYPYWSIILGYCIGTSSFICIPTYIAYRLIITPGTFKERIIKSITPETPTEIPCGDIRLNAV

[21] = target: T1, 5-hydroxytryptamine receptor 7; experiment: Inhibition of 5HT7 receptor by competition radioligand binding assay
[22] = Plasma concentration in Sprague-Dawley rat at 30 mg/kg, ip after 0.5 hrs; assay type: ADME, organism-based; design: dose 30 mg/kg, route intraperitoneal
[23] = Plasma concentration in Sprague-Dawley rat at 30 mg/kg, po after 4 hrs; assay type: ADME, organism-based; design: dose 30 mg/kg, route oral
[24] = Plasma concentration in Sprague-Dawley rat at 30 mg/kg, po after 1 hr; assay type: ADME, organism-based; design: dose 30 mg/kg, route oral
[25] = Plasma concentration in Sprague-Dawley rat at 30 mg/kg, po after 0.5 hrs; assay type: ADME, organism-based; design: dose 30 mg/kg, route oral
[26] = Inhibition of adrenergic receptor 1 alpha by competition radioligand binding assay
[27] = target: T5, 5-hydroxytryptamine receptor 1D (Homo sapiens, UniProt P28221); experiment: Activity at 5HT1D receptor assessed as calcium mobilization by FLIPR; assay type: functional
[28] = Activity at adrenergic receptor 1 alpha assessed as calcium mobilization by FLIPR
[29] = Plasma concentration in Sprague-Dawley rat at 30 mg/kg, ip after 8 hrs; assay type: ADME, organism-based; design: dose 30 mg/kg, route intraperitoneal
[30] = Plasma concentration in Sprague-Dawley rat at 1 mg/kg, iv after 6 hrs; assay type: ADME, organism-based; design: dose 1 mg/kg, route intravenous
[31] = Plasma concentration in Sprague-Dawley rat at 1 mg/kg, iv after 0.033 hrs; assay type: ADME, organism-based; design: dose 1 mg/kg, route intravenous
[32] = target: T3, 5-hydroxytryptamine receptor 6; experiment: Activity at 5HT6 receptor assessed as calcium mobilization by FLIPR; assay type: functional
[33] = Cmax in Sprague-Dawley rat at 30 mg/kg, po; assay type: ADME, organism-based; design: dose 30 mg/kg, route oral; conditions: in vivo
Mus musculus [34] = experiment: Antidepressant activity in Swiss Webster mouse assessed as decrease in immobility time at 30 mg/kg, ip after 30 mins by tail suspension test; assay type: functional; design: scale not given: the % may be the effect or the level left; conditions: route intraperitoneal
[35] = AUC (0 to infinity) in Sprague-Dawley rat at 1 mg/kg, iv; assay type: ADME, organism-based; design: time infinity, dose 1 mg/kg, route intravenous; conditions: plasma
[36] = target: T5, 5-hydroxytryptamine receptor 1D; experiment: Inhibition of 5HT1D receptor by competition radioligand binding assay
[37] = Plasma concentration in Sprague-Dawley rat at 1 mg/kg, iv after 2 hrs; assay type: ADME, organism-based; design: dose 1 mg/kg, route intravenous
[38] = target: T6, 5-hydroxytryptamine receptor 1B (Homo sapiens, UniProt P28222); experiment: Activity at 5HT1B receptor assessed as calcium mobilization by FLIPR; assay type: functional
[39] = Plasma concentration in Sprague-Dawley rat at 1 mg/kg, iv after 0.5 hrs; assay type: ADME, organism-based; design: dose 1 mg/kg, route intravenous
Rattus norvegicus [40] = experiment: Effect on ovariectomy-induced thermoregulatory dysfunction in telemetry Sprague-Dawley rat model assessed as mean reduction in tail skin temperature at 30 mg/kg, ip after 6.5 hrs relative to control; assay type: functional; conditions: route intraperitoneal
[41] = Plasma concentration in Sprague-Dawley rat at 30 mg/kg, po after 6 hrs; assay type: ADME, organism-based; design: dose 30 mg/kg, route oral
[42] = Plasma concentration in Sprague-Dawley rat at 30 mg/kg, po after 8 hrs; assay type: ADME, organism-based; design: dose 30 mg/kg, route oral
[43] = target: T7, 5-hydroxytryptamine receptor 2A (Homo sapiens, UniProt P28223); experiment: Activity at 5HT2A receptor assessed as calcium mobilization by FLIPR; assay type: functional
[44] = target: T7, 5-hydroxytryptamine receptor 2A; experiment: Inhibition of 5HT2A receptor by competition radioligand binding assay
[45] = Plasma concentration in Sprague-Dawley rat at 1 mg/kg, iv after 1 hr; assay type: ADME, organism-based; design: dose 1 mg/kg, route intravenous
[46] = Plasma concentration in Sprague-Dawley rat at 30 mg/kg, po after 2 hrs; assay type: ADME, organism-based; design: dose 30 mg/kg, route oral
[47] = Plasma concentration in Sprague-Dawley rat at 30 mg/kg, po after […]; assay type: ADME, organism-based; design: dose 30 mg/kg, route oral
[48] = target: T6, 5-hydroxytryptamine receptor 1B; experiment: Inhibition of 5HT1B receptor by competition radioligand binding assay
[49] = Plasma concentration in Sprague-Dawley rat at 1 mg/kg, iv after 4 hrs; assay type: ADME, organism-based; design: dose 1 mg/kg, route intravenous
[50] = target: Sodium-dependent serotonin transporter (Rattus norvegicus, UniProt P31652)
Description: Inhibition of 5HT uptake at rat brain SERT

[51] = target: T8, Sodium-dependent noradrenaline transporter (Homo sapiens, UniProt P23975)
[52] = target: T4, Sodium-dependent serotonin transporter; assay type: cell-based, JAR
Homo sapiens = species: Homo sapiens; experiment: Selectivity ratio of IC50 for human NET over IC50 for human SERT
[53] = target: T8, Sodium-dependent noradrenaline transporter; experiment: biochemical
Description: Displacement of [3H]nisoxetine from human norepinephrine transporter expressed in MDCK-Net6 cells

[54] = target: T8, Sodium-dependent noradrenaline transporter; experiment: Inhibition of norepinephrine uptake at human norepinephrine transporter expressed in MDCK-Net6 cells at 1000 nM; assay type: cell-based

T8 sequence (P23975 whole entry): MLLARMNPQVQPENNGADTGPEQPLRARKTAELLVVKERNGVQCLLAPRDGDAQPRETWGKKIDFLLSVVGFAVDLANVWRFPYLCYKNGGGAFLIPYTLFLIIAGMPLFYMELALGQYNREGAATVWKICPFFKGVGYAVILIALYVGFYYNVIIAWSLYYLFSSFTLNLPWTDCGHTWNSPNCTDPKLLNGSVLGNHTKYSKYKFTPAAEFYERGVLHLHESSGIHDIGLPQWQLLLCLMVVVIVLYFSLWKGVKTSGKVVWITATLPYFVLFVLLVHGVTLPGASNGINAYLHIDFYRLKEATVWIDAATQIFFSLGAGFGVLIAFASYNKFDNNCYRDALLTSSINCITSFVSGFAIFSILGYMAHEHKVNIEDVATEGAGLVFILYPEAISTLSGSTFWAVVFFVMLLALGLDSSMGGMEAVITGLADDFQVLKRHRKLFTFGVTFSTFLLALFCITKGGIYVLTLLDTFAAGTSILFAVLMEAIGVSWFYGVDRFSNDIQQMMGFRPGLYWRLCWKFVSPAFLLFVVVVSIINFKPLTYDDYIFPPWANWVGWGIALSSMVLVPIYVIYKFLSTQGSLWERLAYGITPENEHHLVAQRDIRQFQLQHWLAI
Chain of Sodium-dependent dopamine transporter (Q01959 whole entry): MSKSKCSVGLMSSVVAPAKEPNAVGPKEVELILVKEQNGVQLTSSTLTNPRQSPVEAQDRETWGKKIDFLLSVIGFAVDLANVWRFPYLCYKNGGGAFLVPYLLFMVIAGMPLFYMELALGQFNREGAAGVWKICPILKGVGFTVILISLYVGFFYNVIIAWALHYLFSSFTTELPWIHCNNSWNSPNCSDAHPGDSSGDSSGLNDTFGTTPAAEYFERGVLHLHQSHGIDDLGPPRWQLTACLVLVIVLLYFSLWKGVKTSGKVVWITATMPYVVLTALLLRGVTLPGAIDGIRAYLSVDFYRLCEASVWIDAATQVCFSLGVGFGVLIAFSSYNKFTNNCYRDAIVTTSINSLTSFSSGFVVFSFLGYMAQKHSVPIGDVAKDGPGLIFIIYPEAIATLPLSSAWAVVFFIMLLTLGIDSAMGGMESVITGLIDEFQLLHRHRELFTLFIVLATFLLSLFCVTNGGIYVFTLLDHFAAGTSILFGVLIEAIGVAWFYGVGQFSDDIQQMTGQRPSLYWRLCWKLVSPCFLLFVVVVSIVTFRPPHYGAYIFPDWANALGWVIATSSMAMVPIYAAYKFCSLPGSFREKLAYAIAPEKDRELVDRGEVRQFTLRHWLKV
T2 sequence (P41595 whole entry): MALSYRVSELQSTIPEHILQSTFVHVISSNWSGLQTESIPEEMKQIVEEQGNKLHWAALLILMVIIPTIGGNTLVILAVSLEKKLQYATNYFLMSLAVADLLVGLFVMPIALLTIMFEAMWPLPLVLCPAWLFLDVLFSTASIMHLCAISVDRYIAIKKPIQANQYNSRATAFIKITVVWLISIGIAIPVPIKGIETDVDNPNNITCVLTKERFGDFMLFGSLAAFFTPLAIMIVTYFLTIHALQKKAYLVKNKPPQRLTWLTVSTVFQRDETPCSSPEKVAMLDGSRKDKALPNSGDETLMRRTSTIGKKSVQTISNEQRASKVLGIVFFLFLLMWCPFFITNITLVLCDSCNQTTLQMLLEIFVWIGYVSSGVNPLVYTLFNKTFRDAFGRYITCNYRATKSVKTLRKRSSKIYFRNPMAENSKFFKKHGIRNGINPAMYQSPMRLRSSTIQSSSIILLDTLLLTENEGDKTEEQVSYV
T3 sequence (P50406 whole entry): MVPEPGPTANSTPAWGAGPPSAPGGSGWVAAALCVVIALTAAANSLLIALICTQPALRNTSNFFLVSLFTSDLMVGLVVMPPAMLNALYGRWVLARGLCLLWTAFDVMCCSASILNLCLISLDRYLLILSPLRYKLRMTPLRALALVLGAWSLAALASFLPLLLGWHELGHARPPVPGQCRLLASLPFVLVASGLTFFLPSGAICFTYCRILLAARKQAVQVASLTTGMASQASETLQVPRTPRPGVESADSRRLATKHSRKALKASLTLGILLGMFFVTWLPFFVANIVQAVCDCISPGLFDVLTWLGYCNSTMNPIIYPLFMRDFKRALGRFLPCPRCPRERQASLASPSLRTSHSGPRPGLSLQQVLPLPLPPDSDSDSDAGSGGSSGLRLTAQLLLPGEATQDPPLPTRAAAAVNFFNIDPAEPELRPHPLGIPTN
Chain of Transporter (Q63380 whole entry): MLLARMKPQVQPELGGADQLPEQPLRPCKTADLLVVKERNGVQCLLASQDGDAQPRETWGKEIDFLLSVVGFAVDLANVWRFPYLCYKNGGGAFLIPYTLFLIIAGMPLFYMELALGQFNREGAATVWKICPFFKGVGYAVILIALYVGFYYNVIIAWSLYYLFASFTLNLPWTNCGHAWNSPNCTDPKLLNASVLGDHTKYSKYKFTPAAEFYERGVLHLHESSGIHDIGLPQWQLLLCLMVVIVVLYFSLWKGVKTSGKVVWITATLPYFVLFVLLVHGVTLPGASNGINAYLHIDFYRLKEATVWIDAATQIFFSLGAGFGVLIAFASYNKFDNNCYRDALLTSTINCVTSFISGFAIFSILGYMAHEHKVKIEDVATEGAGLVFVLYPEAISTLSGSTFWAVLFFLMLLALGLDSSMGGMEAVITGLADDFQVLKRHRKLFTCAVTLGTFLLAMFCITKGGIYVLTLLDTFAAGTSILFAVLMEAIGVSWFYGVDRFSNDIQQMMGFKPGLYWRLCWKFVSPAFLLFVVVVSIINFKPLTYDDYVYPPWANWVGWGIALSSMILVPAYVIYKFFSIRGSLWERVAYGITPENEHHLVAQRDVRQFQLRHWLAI
T5 sequence (P28221 whole entry): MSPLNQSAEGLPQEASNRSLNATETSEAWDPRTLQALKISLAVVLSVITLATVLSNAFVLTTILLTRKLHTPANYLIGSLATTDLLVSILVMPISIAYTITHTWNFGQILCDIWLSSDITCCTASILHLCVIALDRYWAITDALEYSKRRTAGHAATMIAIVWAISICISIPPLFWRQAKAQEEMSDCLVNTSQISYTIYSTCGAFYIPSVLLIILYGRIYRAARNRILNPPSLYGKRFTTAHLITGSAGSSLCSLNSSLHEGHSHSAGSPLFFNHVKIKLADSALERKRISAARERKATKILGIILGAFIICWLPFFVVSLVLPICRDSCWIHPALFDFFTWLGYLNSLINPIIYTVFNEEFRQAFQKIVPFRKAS
T1 sequence (P34969 whole entry): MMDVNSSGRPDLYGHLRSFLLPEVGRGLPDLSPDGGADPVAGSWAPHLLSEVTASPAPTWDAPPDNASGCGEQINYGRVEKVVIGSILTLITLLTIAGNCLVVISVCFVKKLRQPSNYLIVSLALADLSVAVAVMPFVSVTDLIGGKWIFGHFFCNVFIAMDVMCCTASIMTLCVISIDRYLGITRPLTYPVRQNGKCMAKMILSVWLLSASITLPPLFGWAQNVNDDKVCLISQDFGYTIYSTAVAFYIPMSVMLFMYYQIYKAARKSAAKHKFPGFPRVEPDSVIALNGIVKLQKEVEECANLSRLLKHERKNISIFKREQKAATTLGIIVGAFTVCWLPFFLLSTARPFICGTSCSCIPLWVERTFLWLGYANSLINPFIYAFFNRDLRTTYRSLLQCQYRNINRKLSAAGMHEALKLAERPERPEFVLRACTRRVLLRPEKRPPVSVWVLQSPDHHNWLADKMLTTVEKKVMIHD
T7 sequence (P28223 whole entry): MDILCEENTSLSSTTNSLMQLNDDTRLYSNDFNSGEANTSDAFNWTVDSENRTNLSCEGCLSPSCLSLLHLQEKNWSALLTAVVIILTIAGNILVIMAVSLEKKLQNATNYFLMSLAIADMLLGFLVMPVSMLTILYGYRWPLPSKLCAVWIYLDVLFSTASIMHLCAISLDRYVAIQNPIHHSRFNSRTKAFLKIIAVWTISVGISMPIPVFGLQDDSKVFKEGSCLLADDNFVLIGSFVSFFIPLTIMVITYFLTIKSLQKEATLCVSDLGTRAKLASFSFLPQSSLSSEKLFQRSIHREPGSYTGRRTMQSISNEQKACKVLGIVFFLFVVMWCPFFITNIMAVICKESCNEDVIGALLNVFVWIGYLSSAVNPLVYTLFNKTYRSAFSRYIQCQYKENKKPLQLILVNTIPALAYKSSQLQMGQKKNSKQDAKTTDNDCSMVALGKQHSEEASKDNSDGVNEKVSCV

CN(C)CC(c1cccc(Cl)c1)C1(O)CCCCC1 (configuration not stated)
IC50 (Transporter): 0.16 µM | Activity [1]: 28%

CN1CCN(C[C@H](c2cccc(OC(F)(F)F)c2)C2(O)CCCCC2)CC1.Cl.Cl
concentration at 6 h [2]: 303 ng/mL | concentration at 4 h [3]: 520 ng/mL | Activity (Mus musculus [4]): 38% | concentration at […] [5]: 225 ng/mL | Activity [1]: 6% | Activity (Rattus norvegicus [6]): -2.16 °C | concentration at 1 h [7]: 1960 ng/mL | half-life [8]: 1.6 h | EC50 [9]: > 10 µM | EC50 [10]: > 10 µM | concentration at 0.033 h [11]: 942 ng/mL | AUC(0-inf) [12]: 931 ng·h/mL | IC50 [13]: > 10 µM | IC50 [14]: > 10 µM | concentration at […] [15]: 1580 ng/mL | Cmax [16]: 2690 ng/mL | AUC(0-inf) [17]: 6160 ng·h/mL | half-life [18]: 2.3 h | concentration at 2 h [19]: 735 ng/mL | inhibition [20]: 3% | IC50 [21]: > 10 µM | concentration at 0.5 h [22]: 2160 ng/mL | concentration at 4 h [23]: 79.5 ng/mL | concentration at 1 h [24]: 304 ng/mL | concentration at 0.5 h [25]: 323 ng/mL | IC50 [26]: > 10 µM | EC50 [27]: > 10 µM | EC50 [28]: > 10 µM | concentration at 8 h [29]: 143 ng/mL | concentration at 6 h [30]: 2.98 ng/mL | concentration at 0.033 h [31]: 164 ng/mL | EC50 [32]: > 10 µM | Cmax [33]: 324 ng/mL | Activity (Mus musculus [34]): 53% | AUC(0-inf) [35]: 367 ng·h/mL | IC50 [36]: > 10 µM | concentration at 2 h [37]: 55.4 ng/mL | EC50 [38]: > 10 µM | concentration at 0.5 h [39]: 187 ng/mL | Activity (Rattus norvegicus [40]): -2.75 °C | concentration at 6 h [41]: 36.5 ng/mL | concentration at 8 h [42]: 14.3 ng/mL | EC50 [43]: > 10 µM | IC50 [44]: > 10 µM | concentration at 1 h [45]: 109 ng/mL | concentration at 2 h [46]: 182 ng/mL | concentration at […] [47]: 115 ng/mL | IC50 [48]: > 10 µM | concentration at 4 h [49]: 19.1 ng/mL

CN(C)CC(c1ccccc1Cl)C1(O)CCCCC1 (configuration not stated)
IC50 (Transporter): 0.64 µM | Activity [1]: 9% | IC50 [50]: 0.013 µM | IC50 [51]: 0.205 µM | IC50 [52]: 0.177 µM | Ratio IC50 (Homo sapiens): 0.86 | Ki [53]: 0.125 µM

COc1ccc(C(CN2CCNCC2)C2(O)CCCCC2)cc1 (configuration not stated)
Activity [1]: 9% | inhibition [20]: 24% | Ki [53]: 0.519 µM | inhibition [54]: 34%
